Consider three molecules from patent US20240325341A1, “ANTI-BACTERIAL EFFECT OF HALOGENATED FLUORESCEINS AGAINST COLISTIN-RESISTANT GRAM-NEGATIVE BACTERIA” (priority 2023, published 2024).

Holding throughout (format): cell-based
For assay [1], the system named is Serratia sp. strain Ag2 (Wild-type). The assay is described as follows: MIC by broth dilution. A general note: In broth dilution the organism is exposed to a series of concentrations in liquid medium.
Assay [2] concerns Acinetobacter baumannii (ATCC BAA1800) colistin-resistant strain. The assay is described as follows: microbe, parasite or virus in culture.
Assay [3] deals with Pseudomonas aeruginosa (ATCC 27853). Put plainly: MIC by broth dilution.
The test system of assay [4] is Salmonella enterica Pennsylvania, Serovar Typhimurium, Isolate 1 (NR4333). The assay is described as follows: MIC by broth dilution. The note with it: 24 h.
For assay [5], the system named is Klebsiella pneumoniae (ATCC 19606). Put plainly: MIC by broth dilution. The note with it: Klebsiella pneumoniae, ATCC19606, 24 h, entry 9.
Assay [6] concerns Burkholderia thailandensis E264 (Wild type). The assay is described as follows: microbe, parasite or virus in culture. The note with it: 24 h.
Assay [7] deals with Salmonella enterica subsp. enterica Typhimurium (BAA 2721) intermediate colistin-resistant strain. The assay is described as follows: microbe, parasite or virus in culture. Particulars: 24 h.
Assay [8] deals with Salmonella enterica Pennsylvania, Serovar Typhimurium, Isolate 1 (NR4333) colistin-resistant strain. The assay is described as follows: microbe, parasite or virus in culture. The note with it: 24 h.
Assay [9] concerns Pseudomonas aeruginosa MRSN 1356 (NR51521). Put plainly: MIC by broth dilution. Particulars: 24 h.
Assay [10] relates to Escherichia coli serotype O157 (TW07793). Put plainly: microbe, parasite or virus in culture. The note with it: broth dilution, 24 h, entry 3.
Assay [11] has as its system Serratia sp. strain Ag2 colistin-resistant strain. The assay is described as follows: microbe, parasite or virus in culture. Particulars: 24 h.
In assay [12] the test system is Klebsiella pneumoniae colistin-resistant strain. Put plainly: microbe, parasite or virus in culture. The note with it: Klebsiella pneumoniae, ATCC19606, 24 h.
For assay [13], the system named is Pseudomonas aeruginosa MRSN 1380 (NR51522). The assay is described as follows: MIC by broth dilution. The note with it: 24 h.
Assay [14] has as its system Acinetobacter baumannii (ATCC19606). Put plainly: MIC by broth dilution.
The subject of assay [15] is Klebsiella pneumoniae (CRE) CHS 67 (NR48569). Put plainly: MIC by broth dilution. Particulars: 24 h.
Assay [16] concerns Klebsiella pneumoniae (CRE) CHS 67 (NR48569) colistin-resistant strain. The assay is described as follows: microbe, parasite or virus in culture. Particulars: 24 h.
For assay [17], the system named is Burkholderia multivorans CGD1 colistin-resistant strain. Put plainly: microbe, parasite or virus in culture. The note with it: broth dilution, 24 h, entry 21.
Assay [18] deals with Burkholderia cepacia genomovar III, LMG16656 (wild type). The assay is described as follows: microbe, parasite or virus in culture.
Assay [19] deals with Proteus mirabilis urine strain WGLW4 (Wild type). The assay is described as follows: MIC by broth dilution. Particulars: 24 h.
Assay [20] concerns Acinetobacter baumannii (ATCC19606) colistin-resistant strain. Put plainly: microbe, parasite or virus in culture.
For assay [21], the system named is Burkholderia cepacia genomovar III, LMG16656 colistin-resistant strain. Put plainly: microbe, parasite or virus in culture. The note with it: broth dilution, 24 h, entry 25.
The subject of assay [22] is Escherichia coli (ATCC 35218). The assay is described as follows: MIC by broth dilution.
Assay [23] concerns Burkholderia multivorans CGD1 (wild type). The assay is described as follows: MIC by broth dilution. The note with it: 24 h.
Assay [24] has as its system Pseudomonas aeruginosa MRSN 1380 (NR51522) colistin-resistant strain. Put plainly: microbe, parasite or virus in culture. Particulars: 24 h.
In assay [25] the test system is Escherichia coli (ATCC 35218) colistin-resistant strain. Put plainly: microbe, parasite or virus in culture.
Assay [26] has as its system Salmonella enterica subsp. enterica Typhimurium (BAA 2721) (Wild type). Put plainly: MIC by broth dilution. Particulars: 24 h.
Assay [27] concerns Escherichia coli serotype O157 (TW07793) colistin-resistant strain. Put plainly: microbe, parasite or virus in culture. The note with it: 24 h.
The test system of assay [28] is E. coli ATCC35218 colistin^R. The note with it: 30 min; reference molecule at 10 mg/mL.
Assay [29] has as its system Burkholderia thailandensis E264 colistin-resistant strain. Put plainly: microbe, parasite or virus in culture.
Assay [30] deals with Acinetobacter baumannii (ATCC BAA1800). The assay is described as follows: MIC by broth dilution.
The test system of assay [31] is Pseudomonas aeruginosa (ATCC 27853) - intermediate colistin-resistant strain. Put plainly: microbe, parasite or virus in culture.
For assay [32], the system named is Pseudomonas aeruginosa MRSN 1356 (NR51521) colistin-resistant strain. The assay is described as follows: microbe, parasite or virus in culture. Particulars: 24 h.
Assay [33] relates to Proteus mirabilis urine strain WGLW4 colistin-resistant strain. Put plainly: microbe, parasite or virus in culture. The note with it: 24 h.
In assay [34] the test system is Pseudomonas aeruginosa (ATCC 27853) - high colistin-resistant strain. The assay is described as follows: microbe, parasite or virus in culture.
Assay [35] deals with colistin-resistant Gram-negative bacteria. The note with it: under a fluorescent light.
The next assay relates to Klebsiella pneumoniae. The assay is described as follows: MIC by broth dilution. Particulars: 24 h, entry 9.
In assay [36] the test system is Klebsiella pneumoniae (ATCC 19606) colistin-resistant strain. Put plainly: microbe, parasite or virus in culture. Particulars: broth dilution, 24 h; entry 10.
[37] abbreviates: Pseudomonas aeruginosa, ATCC27853, 24 h.

In brackets after ≈: the same amount, converted by molar mass. Like-named read-outs stand apart in the source and are kept apart here. Some results are limits rather than exact numbers.

For `C[C@@H](O)[C@H]1C(=O)N2C(C(=O)O)=C(S[C@@H]3CN[C@H](C(=O)N(C)C)C3)[C@H](C)[C@H]12` [Meropenem], the MIC in assay [1] (Serratia, 24 h, entry 32, read-out: MIC) is 0.039 µg/mL (≈ 0.102 µM); in [1] (Table 1, 24 h) it was 4000 µg/mL (≈ 10400 µM); in [2] (Acinetobacter baumannii, ATCCBAA1800, 24 h), more than 100 µg/mL; in assay [3] (Pseudomonas aeruginosa, ATCC27853, 24 h, entry 13, read-out: MIC), more than 100 µg/mL; in assay [4] (Salmonella enterica, entry 28, read-out: MIC), 1.6 µg/mL (≈ 4.17 µM); in assay [5] it was more than 100 µg/mL. The MIC in assay [6] (Burkholderia thailandensis) was 12.5 µg/mL (≈ 32.6 µM); in assay [7] (Salmonella enterica), 6.25 µg/mL (≈ 16.3 µM); in assay [8] (Salmonella enterica), more than 100 µg/mL; in assay [9] (Pseudomonas aeruginosa, entry 16, read-out: MIC) it was more than 100 µg/mL; in assay [10] (Escherichia coli, read-out: MIC) it was 1.6 µg/mL (≈ 4.17 µM); in assay [11] (Serratia), 12.5 µg/mL (≈ 32.6 µM). Further, the MIC in assay [12] was more than 100 µg/mL; in [13] (Pseudomonas aeruginosa, entry 18, read-out: MIC), 3.13 µg/mL (≈ 8.16 µM); in assay [14] (Acinetobacter baumannii, ATCC19606, 24 h, entry 5, read-out: MIC), 100 µg/mL (≈ 261 µM); in assay [15] (Klebsiella pneumoniae, entry 11, read-out: MIC) it was more than 100 µg/mL; in assay [16] (Klebsiella pneumoniae), more than 100 µg/mL; in assay [17] (Burkholderia multivorans, read-out: MIC) it was more than 100 µg/mL. For the same molecule, the MIC in [18] (Burkholderia cepacia, LMG16656, 24 h) was 25 µg/mL (≈ 65.2 µM); in assay [19] (Proteus mirabilis, entry 30, read-out: MIC), more than 200 µg/mL; in assay [20] (Acinetobacter baumannii, ATCC19606, 24 h), more than 100 µg/mL; in assay [21] (Burkholderia cepacia, LMG16656, read-out: MIC), 100 µg/mL (≈ 261 µM); in assay [22] (Escherichia coli, ATCC35218, 24 h, entry 1, read-out: MIC), less than 0.8 µg/mL; in assay [23] (Burkholderia multivorans, entry 20, read-out: MIC) it was 25 µg/mL (≈ 65.2 µM). For the same molecule, the MIC in [24] (Pseudomonas aeruginosa) is 100 µg/mL (≈ 261 µM); in [25] (Escherichia coli, ATCC35218, 24 h), 25 µg/mL (≈ 65.2 µM); in assay [26] (Salmonella enterica, entry 26, read-out: MIC), 3.1 µg/mL (≈ 8.08 µM); in assay [27] (Escherichia coli) it was 12.5 µg/mL (≈ 32.6 µM); in [29] (Burkholderia thailandensis, 24 h) it was more than 100 µg/mL; in [30] (Acinetobacter baumannii, ATCCBAA1800, 24 h, entry 7, read-out: MIC) it was more than 100 µg/mL. Further, the MIC was more than 100 µg/mL in assay [31] (setting [37]), more than 100 µg/mL in [32] (Pseudomonas aeruginosa), more than 200 µg/mL in assay [33] (Proteus mirabilis) and more than 100 µg/mL in assay [34] (setting [37]). Also, the “reduction of strain (CFU)” value in [28] turned out to be 0%.

As for `O=C1OC2(c3cc(I)c(O)c(I)c3Oc3c2cc(I)c(O)c3I)c2c(Cl)c(Cl)c(Cl)c(Cl)c21` [RB, 4,5,6,7-tetrachloro-2′,4′,5′,7′-tetraiodo-fluorescein], in [35], the bactericidal activity was 0.05 to 6.25 µg/mL.

As for Amikacin, the MIC in assay [1] (24 h, entry 32) is more than 200 µg/mL; in [2] (broth dilution, 24 h, entry 8), more than 100 µg/mL; in assay [3] (24 h, entry 13) it was 32.0 µg/mL; in assay [4] (entry 28) it was 1.6 µg/mL; in the assay on Klebsiella pneumoniae it was 4.0 µg/mL; in [6] (broth dilution, entry 22) it was 64.0 µg/mL. Besides, the MIC in assay [7] (broth dilution, entry 27) is more than 100 µg/mL; in assay [8] (broth dilution, entry 29) it was more than 100 µg/mL; in assay [9] (entry 16), 32.0 µg/mL; in assay [10], 1.6 µg/mL; in assay [11] (broth dilution, entry 33), more than 200 µg/mL; in assay [36] it was 64.0 µg/mL. In addition, the MIC is 64.0 µg/mL in assay [13] (entry 18); 16.0 µg/mL in assay [14] (24 h, entry 5); 16.0 µg/mL in assay [15] (entry 11); more than 100 µg/mL in assay [16] (broth dilution, entry 12); more than 200.0 µg/mL in assay [17]; more than 100 µg/mL in assay [18] (broth dilution, 24 h, entry 24). The MIC was more than 200 µg/mL in assay [19] (entry 30); more than 100 µg/mL in [20] (broth dilution, 24 h, entry 6); more than 200 µg/mL in [21]; 3.1 µg/mL in [22] (24 h, entry 1); 200.0 µg/mL in assay [23] (entry 20); more than 100 µg/mL in assay [24] (broth dilution, entry 19). Moreover, the MIC was more than 100 µg/mL in [25] (broth dilution, 24 h, entry 2); 1.6 µg/mL in assay [26] (entry 26); 25.0 µg/mL in [27] (broth dilution, entry 4); more than 200 µg/mL in assay [29]; 64.0 µg/mL in [30] (24 h, entry 7); more than 100 µg/mL in [31] (broth dilution, 24 h, entry 14). For the same molecule, the MIC in [32] (broth dilution, entry 17) is more than 100 µg/mL; in [33] (broth dilution, entry 31) it was more than 200 µg/mL; in [34] (broth dilution, 24 h, entry 15), more than 200 µg/mL. Besides, the “reduction of strain (CFU)” value in assay [28] is on record as “about 3.5%”.
